A short description of data set [1]: in vitro. To be noted: human; HGT-NV cells, 72 h, resazurin; read-out: 50% cytotoxic concentration (CC50). It is filed as cell-based. The procedure:
The cell cytotoxicity of rupintrivir against HGT-NV cells was determined by a resazurin assay ([39]). Briefly, subconfluent HGT-NV cells in 96-well plates were treated with various concentrations of rupintrivir and then incubated for 72 h in a CO2 incubator at 37°C. After incubation, the supernatant was removed and the cells were washed with PBS, and then complete DMEM containing resazurin (0.1 mg/ml) was added to the cells. After 4 h of incubation, the optical density at 560 nm with a 620-nm optical density reference was determined by using a SpectraMax i3 instrument (Molecular Devices). The 50% cytotoxic concentration (CC50) values of rupintrivir were calculated using XLfit (version 5.3) software.

The subject of data set [2] is Norwalk virus replicon. The experiment in a line: Susceptibility of HGT-NV replicon cells passaged in parallel in DMSO (qRT-PCR). In kind it is cell-based, Human norovirus (HuNoV) GI. On the procedure:
Given the potent effects of rupintrivir on HGT-NV cells, we sought to determine whether rupintrivir-resistant replicons could be generated. To this end, HGT-NV cells were treated with 5 μM rupintrivir for 12 days in the absence of G418 selection, followed by subsequent passages in the presence of G418 with increasing concentrations of rupintrivir for up to 45 days (Fig. 1D). This approach yielded three lineages of replicon cells which were resistant to 10, 15, and 20 μM rupintrivir. To identify the mutations conferring the resistance to rupintrivir, we isolated cell clones by limiting dilution using replicon cells surviving after 45 days of culture and then evaluated the rupintrivir sensitivity of the replicon cells. […] All clones treated with 10 μM rupintrivir had the I109V single amino acid substitution, while the A105V/I109V double amino acid substitution was observed only in clones treated with 15 and 20 μM rupintrivir. […]
The inhibitory effect of rupintrivir on HuNoV replication was assessed by quantification of the levels of GI NuNoV RNA and β-actin RNA as the reference gene. […] The real-time quantitative reverse transcription-PCR (qRT-PCR) assay was performed by using a One-Step Plus qRT-PCR kit according to the protocol of the manufacturer (Primer Design). […] Relative quantification was performed using the 2^−ΔΔCT threshold cycle (CT) method ([38]). […]

Data set [3] addresses T1, GI I109V mutant protease (Norovirus, UniProt Q83883, I1209V).
T1 construct: plasmids expressing norovirus protease from GI.1 (M87661); expressed in transfected cells; host or cells: HEK293T
Nature of the data set: Cell-based FRET assay, GI I109V protease. More on the design: species or system norovirus GI.1 (M87661). The source says: (§1) The generation of plasmids expressing norovirus protease from GI.1 (M87661), GII.4 (DQ658413), or GV (DQ285629) norovirus and FRET assay constructs has been described previously ([18]). The plasmids carrying GI, GII, and GV proteases with the A105V, I109V, or A105V/I109V mutation were generated from the wild-type (WT) protease constructs described above by the QuikChange site-directed mutagenesis method. Mutant MNV genomes for reverse genetics were generated by two-step PCR mutagenesis of the WT MNV genome (pT7 MNV 3RZ) construct as described previously ([27]). The primers used for generation of the plasmids are listed in Tables S1 and S2 in the supplemental material.
(§2) The YFP/CFP ratio was used to determine FRET efficiency, as described previously ([18], [40]). Briefly, HEK293T cells were plated into black 96-well cell culture microplates (Greiner Bio-One) at a density of 5 × 10^4 cells/well in 100 μl of DMEM containing 10% fetal bovine serum with or without various concentrations of rupintrivir and then incubated for 4 h in a CO2 incubator at 37°C. […] The plates were then analyzed on a SpectraMax i3 instrument in fluorescence mode, with excitation set at 434 nm and the reading emissions set at 477 nm (CFP) and 527 nm (YFP). The background fluorescence from wells transfected with pcDNA3.1 was determined and subtracted. […]

The target of data set [4] is T2, GV A105V protease (Norovirus, UniProt Q80J95, A1099V).
T2 construct: plasmids expressing norovirus protease from GI.1 (M87661), GII.4 (DQ658413), or GV (DQ285629) norovirus; expressed in transfected cells; host or cells: HEK293T
T2 sequence (Q80J95 995-1177 A1099V): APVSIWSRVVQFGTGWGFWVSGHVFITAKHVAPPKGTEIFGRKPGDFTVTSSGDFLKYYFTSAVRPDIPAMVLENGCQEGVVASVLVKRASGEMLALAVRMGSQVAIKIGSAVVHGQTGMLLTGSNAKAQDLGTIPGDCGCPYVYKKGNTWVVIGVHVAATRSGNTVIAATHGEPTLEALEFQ
Nature of the data set: Cell-based FRET assay, GV A105V protease. More on the design: species or system murine norovirus (MNV) GV (DQ285629). To be noted: GV A105V vs GV WT.
Excerpt: as §1, §2

T1 sequence (Q83883 1101-1281 I1209V): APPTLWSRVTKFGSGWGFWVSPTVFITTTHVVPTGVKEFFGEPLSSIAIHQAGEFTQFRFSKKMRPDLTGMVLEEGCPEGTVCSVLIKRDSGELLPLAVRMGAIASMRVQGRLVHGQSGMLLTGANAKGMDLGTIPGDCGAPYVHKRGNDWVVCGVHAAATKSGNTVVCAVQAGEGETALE

For the compound `CCOC(=O)/C=C/[C@H](C[C@@H]1CCNC1=O)NC(=O)[C@@H](CC(=O)[C@@H](NC(=O)c1cc(C)on1)C(C)C)Cc1ccc(F)cc1` [rupintrivir, Rupintrivir], the CC50 in data set [1] was over 100 µM. The “Fold change in sensitivity” value in data set [2] (DMSO-passaged cells, relative to DMSO) came out at 1.0. In addition, in data set [2] (Norwalk virus, read-out: Mean EC50 ± SD), the concentration giving a half-maximal response (EC50) was determined as 1.3 ± 0.2 µM. This compound also showed a half-maximal inhibitory concentration (IC50) in data set [3] (HEK293T cells, GI NS1/2-NS3 FRET substrate) of 4 ± 0.4 µM. In data set [3] (vs GI WT protease), the “fold increase in IC50” value was 3.1 fold. Further, the “impact of substitution on susceptibility” value in data set [4] is listed as “no appreciable impact”.
